Several values for one entry are separate records, joined by “and”; a condition that tells them apart may be missing. Identical values can stand only once.
Columns and labels:
participants with IPF = assay: Phase 2 study, IPF cohort: safety and blood pressure monitoring; type: in vivo, human; conditions: for Nadir post-dose mean reduction from baseline in sitting SBP: Day 1, 2 hours post-dose
Protocol: A total of 278 participants with IPF were randomized and 276 participants were treated as of the final analyses data cut-off (4 Aug. 2022). Male and female participants […] with IPF and percent predicted forced vital capacity (ppFVC) […] and percent predicted DLCO (ppDLCO)≥25%; diagnosed within 7 years of screening; having a centrally-read chest HRCT obtained at screening that was consistent with UIP or probable UIP, or having a lung biopsy consistent with UIP, were eligible to enter the study. The mean baseline ppFVC for all subjects was 76.5%. In the primary IPF cohort, participants were randomized (1:1:1) to receive 30 mg or 60 mg Compound A or placebo (PBO) twice daily for 26 weeks. Participants were stratified by standard of care (SoC) IPF therapy (pirfenidone versus nintedanib versus none) and region (Japan versus Rest of World) at randomization.
Patient experiences any of the following, confirmed by retest within 15 minutes: • Seated systolic blood pressure <85 mmHg • Seated diastolic blood pressure <55 mmHg • Orthostatic hypotension
Patient experiences symptoms that, in the investigator's opinion, could be associated with a reduction in blood pressure and also experiences at least one of the following, confirmed by retest within 15 minutes: • Seated systolic blood pressure <100 mmHg or seated diastolic blood pressure <60 mmHg • Decrease of seated systolic blood pressure of ≥20 mmHg from the previous visit or decrease of seated diastolic blood pressure of ≥10 mmHg from the previous visit • Orthostatic hypotension • Orthostatic tachycardia

[1] = tested on: healthy Japanese participants; assay: Phase 1 Part C MAD Japanese cohorts: blood pressure; type: in vivo, human
Protocol: The study was performed in 3 parts in 112 healthy male and female participants, including 24 Japanese participants. Female participants were to be not of childbearing potential. The present study was designed to evaluate the safety and tolerability, PK, and exploratory PD of an oral suspension of Compound A. Parts A and B (Cohort B1 only) enrolled healthy participants and was conducted at a site in The Netherlands and Part B (Cohort B2 to B5) enrolled healthy non-Japanese participants and was conducted at a site in the United Kingdom (UK). Part C enrolled healthy Japanese participants and was conducted at the same site in the UK.
Part C was a MAD study in 3 sequential dose escalation cohorts (30 mg BID, 60 mg BID, and 90 mg BID) of 8 healthy Japanese participants (6 active+2 placebo) each. Eligible participants in Cohorts C1 to C3 received study drug (Compound A or placebo) administered orally for 14 days.
Physical examinations, vital sign measurements (including orthostasis testing in Cohort A6, Cohort B3 to B5, and C1 to C3 at selected time points), 12-lead electrocardiogram (ECG), and clinical laboratory evaluations were performed at selected times throughout the study. In addition, Holter monitoring was performed for the first 24 hours post dose on Day 1 in Part A (not in FE/pH cohort), and also for the first 24 hours post dose on Day 1 and Day 14 in Parts B and C. Participants were closely monitored for adverse events (AEs). Blood samples were collected for up to 14 days (follow-up visit) after (last) study drug administration for PK analysis. In addition, blood and urine were collected for exploratory biomarker assessments and for biobanking of samples for potential analyses. Urine was collected for potential PK analysis for up to 96 hours after a single dose of Compound A or placebo was administered in the SAD part, and for up to 24 hours after the first (morning) dose of study drug on Day 1 and for up to 24 hours after the last (morning) dose of study drug on Day 14 in the MAD parts.

[2] = Active Total (30 mg and 60 mg groups)

CCCN(C)C(=O)OCc1c(-c2ccc(O[C@H]3CCC[C@H](C(=O)O)C3)c(C)n2)nnn1C [Compound A, (1S,3S)-3-((2-methyl-6-(1-methyl-5-(((methyl(propyl)carbamoyl)-oxy)methyl)-1H-1,2,3-triazol-4-yl)pyridin-3-yl)oxy)cyclohexane-1-carboxylic acid]
Dose reductions to 10 mg BID due to protocol-defined low BP criteria (participants with IPF; 30 mg BID): 7 (7.7%) n (%) and 7 (7.7) n (%) | Treatment discontinuations due to TEAEs (participants with IPF; 30 mg BID): 9.9% | Asymptomatic low blood pressure (participants with IPF; 30 mg BID (N = 91)): 22 (24.2%) n (%) and 22 (24.2) n (%) | Orthostatic hypotension observed in asymptomatic low BP (participants with IPF; 30 mg BID (N = 91)): 21 (23.1%) n (%) and 21 (23.1) n (%) | Orthostatic hypotension observed in symptomatic low BP (participants with IPF; 30 mg BID (N = 91)): 9 (9.9%) n (%) and 9 (9.9) n (%) | Orthostatic intolerance (participants with IPF; 30 mg BID (N = 91)): 10 (11.0%) n (%) and 10 (11.0) n (%) | Subjects discontinuing study treatment due to a TEAE (participants with IPF; 30 mg BID (N = 91)): 9 (9.9%) n (%) and 9 (9.9) n (%) | Subjects who died (participants with IPF; 30 mg BID (N = 91)): 4 (4.4%) n (%) and 4 (4.4) n (%) | Subjects who died due to a TEAE (participants with IPF; 30 mg BID (N = 91)): 3 (3.3%) n (%) and 3 (3.3) n (%) | Subjects with at least one AESI (participants with IPF; 30 mg BID (N = 91)): 18 (19.8%) n (%) and 18 (19.0) n (%) | Subjects with at least one TEAE (participants with IPF; 30 mg BID (N = 91)): 69 (75.8%) n (%) and 69 (75.8) n (%) | Subjects with at least one TEAE related to the study treatment (participants with IPF; 30 mg BID (N = 91)): 23 (25.3%) n (%) and 23 (25.3) n (%) | Subjects with at least one TESAE (participants with IPF; 30 mg BID (N = 91)): 10 (11.0%) n (%) and 10 (11.0) n (%) | Symptomatic low blood pressure (participants with IPF; 30 mg BID (N = 91)): 11 (12.1%) n (%) and 11 (12.1) n (%) | Nadir post-dose mean reduction from baseline in sitting SBP (participants with IPF; 30 mg): −10.5 mmHg | Dose reductions to 10 mg BID due to protocol-defined low BP criteria (participants with IPF; 60 mg BID): 6 (6.5%) n (%) and 6 (6.5) n (%) | Treatment discontinuations due to TEAEs (participants with IPF; 60 mg BID): 6.5% | Asymptomatic low blood pressure (participants with IPF; 60 mg BID (N = 93)): 17 (18.3%) n (%) and 17 (18.3) n (%) | Orthostatic hypotension observed in asymptomatic low BP (participants with IPF; 60 mg BID (N = 93)): 14 (15.1%) n (%) and 14 (15.1) n (%) | Orthostatic hypotension observed in symptomatic low BP (participants with IPF; 60 mg BID (N = 93)): 5 (5.4%) n (%) and 5 (5.4) n (%) | Orthostatic intolerance (participants with IPF; 60 mg BID (N = 93)): 2 (2.2%) n (%) and 2 (2.2) n (%) | Subjects discontinuing study treatment due to a TEAE (participants with IPF; 60 mg BID (N = 93)): 6 (6.5%) n (%) and 6 (6.5) n (%) | Subjects who died (participants with IPF; 60 mg BID (N = 93)): 5 (5.4%) n (%) and 5 (5.4) n (%) | Subjects who died due to a TEAE (participants with IPF; 60 mg BID (N = 93)): 4 (4.3%) n (%) and 4 (4.3) n (%) | Subjects with at least one AESI (participants with IPF; 60 mg BID (N = 93)): 9 (9.7%) n (%) and 9 (9.7) n (%) | Subjects with at least one TEAE (participants with IPF; 60 mg BID (N = 93)): 69 (74.2%) n (%) and 69 (74.2) n (%) | Subjects with at least one TEAE related to the study treatment (participants with IPF; 60 mg BID (N = 93)): 25 (26.9%) n (%) and 25 (26.9) n (%) | Subjects with at least one TESAE (participants with IPF; 60 mg BID (N = 93)): 10 (10.8%) n (%) and 10 (10.8) n (%) | Symptomatic low blood pressure (participants with IPF; 60 mg BID (N = 93)): 6 (6.5%) n (%) and 6 (6.5) n (%) | Risk of orthostatic and low BP events compared to PBO (participants with IPF; 60 mg twice daily (BID)): not associated with any increased risk of orthostatic intolerance, orthostatic hypotension, orthostatic tachycardia, or symptomatic or asymptomatic low BP | Nadir post-dose mean reduction from baseline in sitting SBP (participants with IPF; 60 mg): −14.1 mmHg | Subjects discontinuing study treatment due to a TEAE (participants with IPF; [2]): 15 (8.2) n (%) | Subjects who died (participants with IPF; [2]): 9 (4.9) n (%) | Subjects who died due to a TEAE (participants with IPF; [2]): 7 (3.8) n (%) | Subjects with at least one AESI (participants with IPF; [2]): 27 (14.7) n (%) | Subjects with at least one TEAE (participants with IPF; [2]): 138 (75.0) n (%) | Subjects with at least one TEAE related to the study treatment (participants with IPF; [2]): 48 (26.1) n (%) | Subjects with at least one TESAE (participants with IPF; [2]): 20 (10.9) n (%) | Maximum of mean (±SD) reduction in DBP from baseline (column printed under the head Baseline (mmHg)) ([1]; Japanese MAD 30 BID (C1)): 8.8 ± 5.12 mmHg | Maximum of mean (±SD) reduction in SBP from baseline ([1]; Japanese MAD 30 BID (C1)): 15.0 ± 6.84 mmHg | Time of maximum mean SBP reduction ([1]; Japanese MAD 30 BID (C1)): 1-4 Day-h | Maximum of mean (±SD) reduction in DBP from baseline (column printed under the head Baseline (mmHg)) ([1]; Japanese MAD 60 BID (C2)): 8.2 ± 10.40 mmHg | Maximum of mean (±SD) reduction in SBP from baseline ([1]; Japanese MAD 60 BID (C2)): 13.0 ± 8.22 mmHg | Time of maximum mean DBP reduction ([1]; Japanese MAD 60 BID (C2)): 4-16 Day-h | Time of maximum mean SBP reduction ([1]; Japanese MAD 60 BID (C2)): 2-16 Day-h | Maximum of mean (±SD) reduction in DBP from baseline (column printed under the head Baseline (mmHg)) ([1]; Japanese MAD 90 BID (C2)): 8.0 ± 8.22 mmHg | Maximum of mean (±SD) reduction in SBP from baseline ([1]; Japanese MAD 90 BID (C2)): 11.8 ± 8.47 mmHg | Time of maximum mean DBP reduction ([1]; Japanese MAD 90 BID (C2)): 1-6 Day-h | Time of maximum mean SBP reduction ([1]; Japanese MAD 90 BID (C2)): 1-6 Day-h | Dose dependence of mean BP reduction ([1]; Japanese MAD cohorts): no clear Compound A dose-dependent BP reduction trend

Reference: patent US20240216352A1 (priority 2022, published 2024)
